Experimental data: patent publication US20240426807A1, “SCREENING SYSTEM” (Givaudan SA, priority 2021, published 2024)

Columns and labels:
[1] = target: T1, pool of cells with OR5A1, OR5A2, OR5AN1, OR6Y1, OR10G4, OR10G7 or OR10G9 (Homo sapiens, UniProt Q8NGN6); test: Selection of cognate-receptor cells from a pool of OR-expressing cells with the target ligand and puromycin; type: cell-based; conditions: 1 μM eugenol, puromycin 1 μg/ml, pool of 7 OR transfections
T1 construct: expressed in transfected cells; host or cells: HEK293T stably expressing RTP1S and RTP2; 7 separate transfections pooled
T1 sequence (Q8NGN6 1-311): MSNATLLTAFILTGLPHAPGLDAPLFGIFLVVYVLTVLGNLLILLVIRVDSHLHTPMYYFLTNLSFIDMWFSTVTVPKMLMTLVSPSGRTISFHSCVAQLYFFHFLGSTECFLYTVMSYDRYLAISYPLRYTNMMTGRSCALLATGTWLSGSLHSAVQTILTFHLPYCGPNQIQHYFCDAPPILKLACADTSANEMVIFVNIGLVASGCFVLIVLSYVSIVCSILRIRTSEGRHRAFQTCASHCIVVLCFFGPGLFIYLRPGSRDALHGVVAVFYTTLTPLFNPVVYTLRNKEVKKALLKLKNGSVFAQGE
Method: (§1) For many ligands the cognate OR receptors are not known (“orphan receptors”), or it is unknown among a pool of receptors, which one has the best affinity for a ligand of interest, e.g. a perfumery note of particular interest. Thus, the ligand-induced selection pressure can be used to enrich a specific OR-expressing cell from a pool of OR-expressing cells in the presence of a ligand of interest. HEK293T cells stably expressing RTP1S and RTP2 were seeded into 7 wells of 6-well plates at 330,000 cells/well.
(§2) The next day, the cells of each well were transfected with 2 μg of a PvuI-linearized pGL4.29-CRE-Puro-Hygro-OR construct harboring one of the receptors OR5A1 (NCBI Genbank Gene ID: 219982), OR5A2 (NCBI Genbank Gene ID: 219981), OR5AN1 NCBI Genbank Gene ID: 390195, SEQ ID NO: 70), OR6Y1 (NCBI Genbank Gene ID: 391112), OR10G4 (NCBI Genbank Gene ID: 390264, SEQ ID NO: 72), OR10G7 (NCBI Genbank Gene ID: 390265, SEQ ID NO: 71), or OR10G9 (NCBI Genbank Gene ID: 219870). 24 h after transfection, the cells of all 7 transfections were harvested and pooled. 350 cells of this pool of cells with different OR genes inserted were then seeded into each well of seven 96-well plates.
(§3) 3 days later, cells were stimulated with ligands for either OR5AN1 (10 μM musk ketone), OR10G7 (1 μM eugenol), or OR10G4 (100 μM vanitrope). One plate was treated with DMSO only. 6h after the addition of the OR ligands, puromycin was added to each plate at a final concentration of 1 μg/ml. On every day during the following week, the medium on all plates was replaced with fresh medium containing the corresponding ligand and puromycin. The plates were then searched for wells containing only a single colony of puromycin-resistant cells. The cells of those colonies were transferred to larger plates and grown until they had multiplied to about 8 Mio cells. The genomic DNA of 2 Mio cells of each clone were isolated using the Puregene kit according to the manufacturer's protocol. […]

[2] = target: T2, pool of cells with OR5A1, OR5A2, OR5AN1, OR6Y1, OR10G4, OR10G7 or OR10G9 (Homo sapiens, UniProt Q8NGI8); test: as above; type: cell-based; conditions: 10 μM musk ketone, puromycin 1 μg/ml, pool of 7 OR transfections
T2 construct: expressed in transfected cells; host or cells: HEK293T stably expressing RTP1S and RTP2; 7 separate transfections pooled
T2 sequence (Q8NGI8 1-311): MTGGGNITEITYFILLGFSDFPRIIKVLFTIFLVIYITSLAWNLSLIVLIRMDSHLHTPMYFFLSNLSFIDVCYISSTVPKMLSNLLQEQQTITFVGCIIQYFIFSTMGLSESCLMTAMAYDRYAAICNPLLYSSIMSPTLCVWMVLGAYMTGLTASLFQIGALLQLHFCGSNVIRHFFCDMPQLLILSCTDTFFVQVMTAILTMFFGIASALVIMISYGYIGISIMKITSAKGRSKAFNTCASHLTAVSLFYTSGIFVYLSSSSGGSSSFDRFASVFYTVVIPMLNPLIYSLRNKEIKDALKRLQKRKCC
Method: as §1, §2, §3

SMILES	clones selected with the ligand that contained OR10G7 [1]	clones selected with the ligand that contained OR5AN1 [2] [clones]
C=CCc1ccc(O)c(OC)c1 [eugenol]	8 out of 8	–
CC(=O)c1c(C)c([N+](=O)[O-])c(C(C)(C)C)c([N+](=O)[O-])c1C [musk ketone]	–	9
